Test results: patent US20230270148A1, “BITTER BLOCKERS AND RELATED METHODS OF USE” (Conagen Inc., priority 2020, published 2023)

Assays:
[1] = test system: peach-flavored energy drink (caffeine, B vitamins); experiment: Sensory evaluation: bitterness reduction of a peach-flavored energy drink; type: in vivo; details: dosage per sample
Experimental: (§1) The bitterness blocker candidates listed in Table 1 were prepared into a 1% sample solution with propylene glycol and heated to ensure complete solubilization. […] A trained sensory evaluator was asked to estimate the perceived bitterness reduction against the control, as well as to provide comments on how the addition of the individual sample solution modulated the taste and mouth feel profile of the resulting peach-flavored energy drink.

[2] = test system: dark roast coffee; experiment: Sensory evaluation: bitterness reduction of dark roast coffee; type: in vivo; details: dosage 50 or 100 ppm per sample
Experimental: as §1, with “dark roast coffee.” for “peach-flavored energy drink.”

[3] = test system: caffeine in water; experiment: Two-alternative forced choice (2AFC) difference test; type: in vivo
Experimental: The bitter blocker candidates BB09, BB11, and BB13 were subject to a two-alternative forced choice (2AFC) difference test wherein panelists were presented Control Caffeine solutions and Test solutions containing caffeine and one of three bitterness blocker candidates (BB09, BB 11, or BB13). Panelists were asked to evaluate the two samples and answer the question, “which one is more hitter?”
BB09 and BB11 were tested first. Three ounces of control (caffeine in water), BB09 in caffeine water, and BB11 in caffeine water were presented at room temperature in separate plastic souffle cups labeled with 3-digit codes. Ten sensory trained panelists evaluated each sample in three repetitions with a 10 minute break between repetitions. Panelists then completed the 2AFC. Data was collected on EveQuestion and analyzed on XLSTAT. Testing was conducted at Sensations Research according to FEMA guidelines.
BB13 was tested separately. Two ounces of control (caffeine in water), BB13 in caffeine water were presented at room temperature in separate plastic souffle cups labeled with 3-digit codes. Fifteen participants evaluated each sample in two repetitions with a 10 minute break between repetitions for a total of thirty evaluations as per the FEMA guidelines. Panelists then completed the 2AFC to identify the more bitter sample. Data was collected and analyzed on Compusense.

[4] = test system: bitter-responsive human taste bud tissue-derived cells (hTBEC); experiment: ATP secretion detection assay (luminescence); type: cell-based
Experimental: (§2) The bitter blocker candidates were further characterized using bitter-responsive human taste bud tissue-derived cells (hTBEC) platforms and bioassays. Bitter-responsive hTBECs were treated with hitter blocker candidates and various bitter agonists to assess the efficacy of each bitter blocker candidate in reducing the bitterness of each of the various bitter agonists.
One industry standard bitter agonist was used as a control (L-Praziquantel), and five bitter blocker controls were used (Senomyx BB68, STX-001, sodium gluconate, eridictyol, and homoeridictyol).
BB09, BB11, and BB13 were first tested at various concentrations in combination with 100 μM Dextromethorphan-HBr.
Next, bitter blocker concentration ranges were narrowed (100 μM-1,000 μM) and compared to a fixed concentration of stimulus. […] BB13 was evaluated further by real time ATP secretion detection in pooled hTBEC 66 cells treated with 300 μM Theobromine.
Each culture was treated with BB09, BB11, BB13, STX001, or Senomyx BB68, as well as either Dextromethorphan-HBr at 1000 μM (FIGS. 18A-18C), Theobromine at 1,000 μM (FIGS. 19A-19C), Rebaudioside A at 1 mM (FIGS. 20A-20C), or Caffeine at 3 mM (FIGS. 21A-21C).

[5] = test system: individual donor-derived hTBECs; experiment: Cell calcium mobilization assay; type: cell-based, human
Experimental: as §2
Calcium mobilization response following treatment of 100 μM Dextromethorphan-HBr, 3000 μM Theobromine, and 3 mM Caffeine was evaluated in individual donor-derived hTBECs.

[6] = of thirty evaluations (15 participants, 2 repetitions)

O=C1C[C@@H](c2ccc(O)c(O)c2)Oc2c1c(O)cc(O)c2[C@@H]1O[C@H](CO)[C@@H](O)[C@H](O)[C@H]1O [BB13, Eriodictyol-8-C-β-glucoside]
Comments [1]: Excellent bitter blocking | Comments [2]: Very smooth with nice upfront | significance of bitterness difference control vs sample ([3]; 90% and 95% confidence interval (FIG. 11)): control sample was significantly more bitter | panelists' description of samples ([3]; blocker in caffeine water): initial sweetness that mask the bitterness, less lingering bitterness, and having a nutty taste | evaluations identifying the sample containing the blocker as more bitter [3, 6]: three | evaluations selecting control as more bitter [3, 6]: Twenty-seven | inhibition of luminescence signal from Dextromethorphan-HBr ([4]; 100 μM Dextromethorphan-HBr, blocker 100 μM-1,000 μM, upper concentrations, individual donor-derived hTBECs (FIG. 14A)): inhibited luminescence signal | inhibitory activity against Dextromethorphan-HBr (ATP secretion) ([4]; 100 μM Dextromethorphan-HBr, blocker 1 mM, all three hTBEC cultures (FIG. 22A)): consistently showed inhibitory activity | inhibition of luminescence activity of Dextromethorphan-HBr (ATP secretion) ([4]; 100 μM Dextromethorphan-HBr, various blocker concentrations (FIG. 12)): able to inhibit | inhibition of luminescence signal from L-Praziquantel ([4]; 400 μM L-Praziquantel, blocker 100 μM-1,000 μM, upper concentrations, individual donor-derived hTBECs (FIG. 14B)): inhibited luminescence signal | inhibitory activity against L-Praziquantel (ATP secretion) ([4]; 400 μM L-Praziquantel, blocker 1 mM, all three hTBEC cultures (FIG. 24)): consistently showed inhibitory activity | inhibition of the L-Praziquantel response (ATP secretion) ([4]; 400 μM L-Praziquantel, pooled donor-derived hTBEC (FIG. 13)): showed inhibition | inhibitory activity against Rebaudioside A (ATP secretion) ([4]; 1 mM Rebaudioside A, blocker 1 mM, all three hTBEC cultures (FIG. 23A)): consistently showed inhibitory activity | real time Rebaudioside A-induced ATP secretion ([4]; 1 mM Rebaudioside A, blocker 1,000 μM, pooled hTBEC 56 cultures (FIG. 17)): attenuated | inhibitory activity against Theobromine (ATP secretion) ([4]; 1,000 μM Theobromine, blocker 1 mM, all three hTBEC cultures (FIG. 22B)): consistently showed inhibitory activity | inhibitory activity against Caffeine (ATP secretion) ([4]; 3 mM Caffeine, blocker 1 mM, all three hTBEC cultures (FIG. 23B)): consistently showed inhibitory activity | inhibition of Rebaudioside A-induced ATP secretion ([4]; 3 mM Rebaudioside A, pooled hTBEC 56 cultures, blocker 100, 300 or 1,000 μM (FIG. 16)): strongest inhibition | inhibition of the bitter agonists (ATP secretion) ([4]; hTBEC 66, hTBEC 56, hTBEC Donor H, Dextromethorphan-HBr at 1000 μM, Theobromine 1,000 μM, Rebaudioside A 1 mM or Caffeine 3 mM (FIGS. 18-21)): most consistent inhibition | real time ATP secretion response to Theobromine ([4]; pooled hTBEC 66 cells, 300 μM Theobromine, blocker at 1 mM (FIG. 15)): attenuated the Theobromine-stimulated signal | inhibition of calcium mobilization induced by Dextromethorphan-HBr ([5]; 100 μM Dextromethorphan-HBr, blocker 0.3 μM to 1,000 μM, at high concentrations (FIG. 25)): inhibited calcium mobilization | inhibition of calcium mobilization induced by Caffeine ([5]; 3 mM Caffeine, blocker 1,000 μM, hTBEC 56 cells (FIG. 27)): inhibited calcium mobilization | inhibition of calcium mobilization induced by Theobromine ([5]; 3000 μM Theobromine, blocker 1 μM to 3,000 μM, at high concentrations (FIG. 26)): inhibited calcium mobilization
